Assay results published in US20090048243A1, “THERAPEUTIC AGENT FOR ATTENTION-DEFICIT HYPERACTIVITY DISORDER” (MITSUBISHI PHARMA CORPORATION, priority 2005, published 2009).
pIC50, pKi: −log10 of the molar value. Structures can show the parent of a compound that is named as a salt. Where two headings read alike, the source gives them in different places.

Assays:
5-HT2A receptor = target: T1, 5-HT2A receptor (Rattus norvegicus, UniProt P14842); assay: Specific 5-HT2A receptor binding test (tritiated ketanserin, cerebral cortex crude synaptosome fraction); details: Wistar rat cerebral cortex synaptosome; tritiated ketanserin 0.2 nmol/L; 37° C., 20 minutes
T1 construct: A crude synaptosome fraction was separated from the cerebral cortex of Wistar rats; from tissue; host or cells: Wistar rat cerebral cortex, crude synaptosome fraction
T1 sequence (P14842 whole entry): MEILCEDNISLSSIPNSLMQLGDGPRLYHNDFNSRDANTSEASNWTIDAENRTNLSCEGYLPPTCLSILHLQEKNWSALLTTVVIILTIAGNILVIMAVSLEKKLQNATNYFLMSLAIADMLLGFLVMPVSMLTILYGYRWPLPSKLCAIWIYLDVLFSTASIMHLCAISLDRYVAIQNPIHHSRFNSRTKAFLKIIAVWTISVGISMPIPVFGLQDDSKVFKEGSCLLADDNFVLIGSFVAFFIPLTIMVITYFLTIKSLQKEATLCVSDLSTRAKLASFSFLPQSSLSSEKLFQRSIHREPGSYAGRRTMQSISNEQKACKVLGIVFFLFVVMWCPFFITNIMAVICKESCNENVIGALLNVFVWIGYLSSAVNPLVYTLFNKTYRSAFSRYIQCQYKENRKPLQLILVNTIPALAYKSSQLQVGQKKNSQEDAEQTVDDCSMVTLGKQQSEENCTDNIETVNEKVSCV
Description: A specific 5-HT2A receptor binding test was performed in accordance with a publicly known method (Molecular Pharmacology, Vol.21, p.301, 1981).
A crude synaptosome fraction was separated from the cerebral cortex of Wistar rats at 6 to 12 weeks of age (SEAC Yoshitomi), suspended in 50 mmol/L tris-HCl buffer solution (pH 7.7) (Nacalai Tesque, Inc.), and used in the experiments. Next, each test compound at several different concentrations and tritiated ketanserin (final concentration 0.2 nmol/L) (Japan Radioisotope) were added to the synaptosome suspension, and they were reacted at 37° C. for 20 minutes. After the reaction, the reaction liquor was suction-filtered through a Whatman GF/B filter (NeuroScience, Inc.), and the filter was washed with 50 mmol/L tris-HCl buffer solution (pH 7.7), after which radioactivity remaining in the filter was measured using a liquid scintillation counter (Aloka Co., Ltd.). Non-specific binding was determined in the presence of 10^−5 mmol/L mianserin (Sigma Ltd.). 50% inhibitory concentrations were graphically calculated, and inhibition constants (Ki values) were determined.

[1] = tested on: norepinephrine uptake into mouse cerebral synaptosome; assay: Norepinephrine uptake inhibitory action in crude synaptosome fraction; format: biochemical; details: male ddy mouse hyppocampus synaptosome; tritiated norepinephrine; 37° C., 10 minutes; read-out: 50% inhibitory concentration (IC50) for norepinephrine uptake into mouse cerebral synaptosome
Description: Using a publicly known method (Journal of Pharmacology and Experimental Therapeutics, Vol.165, p.78, 1969) with partial modification, norepinephrine uptake inhibitory action was measured.
A crude synaptosome fraction was separated from the hyppocampus of a male ddy mouse, suspended in Krebs-Henseleit buffer solution (pH 7.4), and used in the experiments. Next, each test compound at several different concentrations was added to the synaptosome suspension and pre-incubated for 5 minutes, after which tritiated norepinephrine (Japan Radioisotope) was added to the reaction liquor, and they were reacted at 37° C. for 10 minutes. After the reaction, the reaction liquor was suction-filtered through a Whatman GF/B filter (NeuroScience, Inc.), and the filter was washed with Krebs-Henseleit buffer solution (pH 7.4), after which radioactivity remaining in the filter was measured using a liquid scintillation counter (Packard company, 3380 model). Norepinephrine concentration dependent uptake was obtained by subtracting the uptake at 0° C. from the uptake at 37° C. 50% inhibitory concentrations were graphically calculated, and inhibition constants (Ki values) were determined.

[2] = tested on: rats with juvenile dopamine neulolysis due to 6-OH-DA treatment; assay: Suppressive effect on increased motor activity in rats with juvenile dopamine neulolysis due to 6-OH-DA treatment; format: in vivo, rat; details: for ED50: Rattus norvegicus, read-out: ED50 for the suppression of increased motor activity due to the 6-OH-DA treatment as 100%; for Effect on increased motor activity due to the 6-OH-DA treatment: compound A 1, 3 or 10 mg/kg, Atomoxetine 1, 3, 10 or 30 mg/kg, vs 0.5% HPMC control
Description: Suppressive effect on increased motor activity in rats with juvenile dopamine neulolysis due to 6-OH-DA treatment Male SD rats (Charles River Japan) were pre-treated with desipramine (Sigma Ltd.) in accordance with the method of Zhang et al. (Neuropsychopharmacology 2001 November;25(5):624-32) on day 5 after birth, after which 6-hydroxydopamine (hereinafter referred to as 6-OH-DA) (Sigma Ltd.) was administered to the cerebral ventricle on one side. During 12 to 18 days after birth, acclimation to a motor activity measurement apparatus (Toyo Sangyo) was performed three times; on day 19 after birth, motor activity was measured and the animals were grouped. […] For control, 0.5% HPMC (hydroxypropylmethylcellulose) was orally administered.

normal rats = assay: Effect on motor activity in normal rats; format: in vivo, rat; details: oral (FIG. 1-B)

Compound	pKi (5-HT2A receptor)	pIC50 [1]	ED50 ([2]; po)	Effect on increased motor activity due to the 6-OH-DA treatment ([2]; oral)	Suppression of motor activity in normal rats (normal rats)	ED50 ([2]; oral, motor activity during 30 minutes following 1 hour after administration, linear regression)	Dose from which a significant difference in suppression of increased motor activity was observed ([2]; oral, P<0.01 versus control (Dunnett method))
c1csc(Cc2ccccc2OCC2CNCCO2)c1 (racemic) [teniloxazine, (±)-2-[[o-(2-thenyl)phenoxy]methyl]morpholine maleic acid salt, reference compound]	7.31	7.92					
CNCCC(Oc1ccccc1C)c1ccccc1.Cl (single isomer, unassigned; (-)) [Atomoxetine, (−)-N-methyl-3-((2-methylphenyl)oxy)-3-phenyl-1-aminopropane hydrochloride, reference compound]			24 mg/kg	dose-dependently suppressed, but no significant suppression was observed			
c1csc(Cc2ccccc2OC[C@H]2CNCCO2)c1 [B, R-2-[[o-(2-thenyl)phenoxy]methyl]morpholine maleic acid salt]	6.00	7.48					
c1csc(Cc2ccccc2OC[C@@H]2CNCCO2)c1 [compound A, S-2-[[o-(2-thenyl)phenoxy]methyl]morpholine maleic acid salt]	7.59	8.59		dose-dependently inhibited	no significant suppression of motor activity was observed	1.7 mg/kg	≥ 3 mg/kg
